From patent US20110086834A1, “ALKYNYL ALCOHOLS AS KINASE INHIBITORS” (AMGEN INC., priority 2008, published 2011)

The compounds below were run against T1, NIK (Homo sapiens, UniProt Q99558) (assay: homogenous time resolved fluorescence (HTRF) assay for NIK Ki measurement). Details: truncated NIK (catalytic domain only), autophosphorylation; 10 nM enzyme; 20, 100, 200 or 500 μM ATP; room temperature, 2 hours; read-out: Ki activity in the homogenous time resolved fluorescence (HTRF) assay for NIK.
T1 construct: Both assays utilize a truncated form of NIK containing only the catalytic domain; made in house; host or cells: baculovirus expression system (insect cells implied)
Type: biochemical

T1 sequence (Q99558 400-655 limits assumed): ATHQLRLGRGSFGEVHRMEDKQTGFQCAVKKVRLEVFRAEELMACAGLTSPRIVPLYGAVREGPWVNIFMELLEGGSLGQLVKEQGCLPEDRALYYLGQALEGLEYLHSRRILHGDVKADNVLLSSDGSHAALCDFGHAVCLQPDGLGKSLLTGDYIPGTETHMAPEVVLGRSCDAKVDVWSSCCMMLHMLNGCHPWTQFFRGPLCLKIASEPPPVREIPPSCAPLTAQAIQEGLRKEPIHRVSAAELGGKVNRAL

| Ki [nM] | SMILES |
| --- | --- |
| < 1000 | Cn1c2c(c3cc(C#CC4(O)CCCC4)ccc31)-c1nc(N)ncc1CNC2=O [Example 245, 2-Amino-1′-((1-hydroxycyclopentyl)ethynyl)-8-methyl-5,8-dihydropyrimido[4′,5′:5,6]azepino[3,4-b]indol-7(6H)-one] |
| < 1000 | COCCN1Cc2cnc(N)nc2-c2c(n(C)c3ccc(C#CC4(O)CCCC4)cc23)C1=O [Example 246, 2-Amino-1′-((1-hydroxycyclopentyl)ethynyl)-6-(2-methoxyethyl)-8-methyl-5,8-dihydropyrimido[4′,5′:5,6]azepino[3,4-b]indol-7(6H)-one] |
| < 1000 | Cn1c2c(c3cc(C#CC4(O)CCCC4)ccc31)-c1nc(N)ncc1CN(Cc1ccccn1)C2=O [Example 247, 2-Amino-1′-((1-hydroxycyclopentyl)ethynyl)-8-methyl-6-(2-pyridinylmethyl)-5,8-dihydropyrimido[4′,′:5,6]azepino[3,4-b]indol-7(6H)-one] |
| < 1000 | CC(O)(C#Cc1ccc2c(c1)N(c1nc(N)ncc1Cl)CC21CCCOC1)c1nccs1 (stereo not drawn) [Example 248, 4-(1-(2-Amino-5-chloro-4-pyrimidinyl)-1,2,5′,6′-tetrahydro-4′H-spiro[indole-3,3′-pyran]-6-yl)-2-(1,3-thiazol-2-yl)-3-butyn-2-ol] |
| < 1000 | Nc1ncc2c(n1)-c1c(nc3ccc(C#CC4(O)CCCC4)cn13)CCC2 [Example 249, 1-((2-amino-6,7-dihydro-5H-pyrido[1″,2″:1′,2′]imidazo[4′,′:6,7]cyclohepta[1,2-d]pyrimidin-11-yl)ethynyl)cyclopentanol] |
| < 1000 | CC(C)(O)C#Cc1ccc2nc3c(n2c1)-c1nc(N)ncc1CCC3 [Example 250, 4-(2-Amino-6,7-dihydro-5H-pyrido[1″,2″:1′,2′]imidazo[4′,′:6,7]cyclohepta[1,2-d]pyrimidin-11-yl)-2-methyl-3-butyn-2-ol] |
| 1000 to 30000 | CNc1ncc2c(n1)-c1c(nc3ccc(C#CC4(O)CCCC4)cn13)CCC2 [Example 251, 1-((2-(methylamino)-6,7-dihydro-5H-pyrido[1″,2″:1′,2′]imidazo[4′,5′:6,7]-cyclohepta[1,2-d]pyrimidin-11-yl)ethynyl)cyclopentanol] |
| 1000 to 30000 | CNc1ncc2c(n1)-c1c(nc3ccc(C#CC(C)(C)O)cn13)CCC2 [Example 252, 2-methyl-4-(2-(methylamino)-6,7-dihydro-5H-pyrido[1″,2″:1′,2′]imidazo[4′,′:6,7]-cyclohepta[1,2-d]pyrimidin-11-yl)-3-butyn-2-ol] |
| 1000 to 30000 | O=C(NCCCN1CCOCC1)c1cnccc1Nc1cccc(C#CC2(O)CCCC2)c1 [Example 253, 4-((3-((1-Hydroxycyclopentyl)ethynyl)phenyl)amino)-N-(3-(4-morpholinyl)propyl)-3-pyridinecarboxamide] |
| 1000 to 30000 | O=C(NCCCN1CCOCC1)c1cnccc1-n1ccc2ccc(C#CC3(O)CCCC3)cc21 [Example 254, 4-(6-((1-Hydroxycyclopentyl)ethynyl)-1H-indol-1-yl)-N-(3-(4-morpholinyl)propyl)-3-pyridinecarboxamide] |
| 1000 to 30000 | CNC(=O)c1cc(N2CCc3ccc(C#CC4(O)CCCC4)cc32)ccn1 [Example 255, 4-(6-((1-hydroxycyclopentyl)ethynyl)-2,3-dihydro-1H-indol-1-yl)-N-methyl-2-pyridinecarboxamide] |
| < 1000 | OC1(C#Cc2ccc3ccn(-c4ccnc(Nc5ccccc5)n4)c3c2)CCCC1 [Example 256, 1-((1-(2-(Phenylamino)-4-pyrimidinyl)-1H-indol-6-yl)ethynyl)cyclopentanol] |
| 1000 to 30000 | OC1(C#Cc2ccc3ccn(-c4cc(Nc5ccccc5)ncn4)c3c2)CCCC1 [Example 257, 1-((1-(6-(phenylamino)-4-pyrimidinyl)-1H-indol-6-yl)ethynyl)cyclopentanol] |
| 1000 to 30000 | COc1cc(Nc2cc(-n3ccc4ccc(C#CC5(O)CCCC5)cc43)ncn2)cc(OC)c1OC [Example 258, 1-((1-(6-((3,4,5-tris(methyloxy)phenyl)amino)-4-pyrimidinyl)-1H-indol-6-yl)ethynyl)cyclopentanol] |
| < 1000 | COc1cc(Nc2nccc(-n3ccc4ccc(C#CC5(O)CCCC5)cc43)n2)cc(OC)c1OC [Example 259, 1-((1-(2-((3,4,5-tris(methyloxy)phenyl)amino)-4-pyrimidinyl)-1H-indol-6-yl)-ethynyl)cyclopentanol] |
| 1000 to 30000 | COc1ccc(Nc2cc(-n3ccc4ccc(C#CC5(O)CCCC5)cc43)ncn2)cc1 [Example 260, 1-((1-(6-((4-(methyloxy)phenyl)amino)-4-pyrimidinyl)-1H-indol-6-yl)-ethynyl)-cyclopentanol] |
| 1000 to 30000 | COCCOc1cnc(N)nc1-c1c[nH]c2ccc(C#CC(C)(O)C(F)(F)F)cc12 (stereo not drawn) [Example 261, 4-(3-(2-Amino-5-((2-(methyloxy)ethyl)oxy)-4-pyrimidinyl)-1H-indol-5-yl)-1,1,1-trifluoro-2-methyl-3-butyn-2-ol] |
| < 1000 | CCN(CC)CCNC(=O)c1ccc(Nc2nccc(N3CCc4ccc(C#CC5(O)CCCC5)cc43)n2)cc1 [Example 262, N-(2-(diethylamino)ethyl)-4-((4-(6-((1-hydroxycyclopentyl)ethynyl)-2,3-dihydro-1H-indol-1-yl)-2-pyrimidinyl)amino)benzamide] |
| < 1000 | Nc1nccc(N2CCc3ccc(C#CC4(O)CCSC4)cc32)n1 (stereo not drawn) [Example 264, 3-((1-(2-amino-4-pyrimidinyl)-2,3-dihydro-tH-indol-6-yl)ethynyl)tetrahydro-3-thiopheneol] |
| < 1000 | CCC(C)(O)C#Cc1ccc2c(c1)N(c1ccnc(N)n1)CC2 (stereo not drawn) [Example 265, 1-(1-(2-Amino-4-pyrimidinyl)-2,3-dihydro-1H-indol-6-yl)-3-methyl-1-pentyn-3-ol] |
| 1000 to 30000 | CC(C)C(C)(O)C#Cc1ccc2c(c1)N(c1ccnc(N)n1)CC2 (stereo not drawn) [Example 266, 1-(1-(2-Amino-4-pyrimidinyl)-2,3-dihydro-1H-indol-6-yl)-3,4-dimethyl-1-pentyn-3-ol] |
| < 1000 | CC(O)(C#Cc1ccc2c(c1)N(c1ccnc(N)n1)CC2)c1ccccc1 (stereo not drawn) [Example 267, 4-(1-(2-Amino-4-pyrimidinyl)-2,3-dihydro-1H-indol-6-yl)-2-phenyl-3-butyn-2-ol] |
| 1000 to 30000 | CC(C)(C)C(C)(O)C#Cc1ccc2c(c1)N(c1ccnc(N)n1)CC2 (stereo not drawn) [Example 268, 1-(1-(2-Amino-4-pyrimidinyl)-2,3-dihydro-1H-indol-6-yl)-3,4,4-trimethyl-1-pentyn-3-ol] |
| < 1000 | CC(O)(C#Cc1ccc2c(c1)N(c1ccnc(N)n1)CC2)c1ccco1 (stereo not drawn) [Example 269, 4-(1-(2-Amino-4-pyrimidinyl)-2,3-dihydro-1H-indol-6-yl)-2-(2-furanyl)-3-butyn-2-ol] |
| < 1000 | COc1ccc(C#CC2(O)CCCC2)cc1Nc1ccnc(N)n1 [Example 270, 1-((3-((2-amino-4-pyrimidinyl)amino)-4-(methyloxy)phenyl)ethynyl)cyclopentanol] |
| < 1000 | CC(C)(O)C#Cc1ccc2c(c1)N(c1ccnc(N)n1)CC2 [Example 271, 4-(1-(2-Amino-4-pyrimidinyl)-2,3-dihydro-1H-indol-6-yl)-2-methyl-3-butyn-2-ol] |
| 1000 to 30000 | CC(O)(C#Cc1ccc2c(c1)N(c1ccnc(N)n1)CC2)c1ccncc1 (stereo not drawn) [Example 272, 4-(1-(2-Amino-4-pyrimidinyl)-2,3-dihydro-1H-indol-6-yl)-2-(4-pyridinyl)-3-butyn-2-ol] |
